From patent US20250018014A1, “METHOD FOR TREATING AND/OR PREVENTING REGNASE-1-RELATED DISEASE” (OSAKA UNIVERSITY, priority 2018, published 2025)
Where two headings read alike, the source gives them in different places. Residues, ends and D or L forms follow the SMILES beside them.

Assays:
Assay type in all cases: biochemical
[1] = target: T1, ΔCTD_Reg1 (amino acids 1 to 546 of human Regnase-1) phosphorylation by IKKβ (Homo sapiens, UniProt Q5D1E8); assay: Regnase-1 phosphorylation inhibition by compounds (AlphaScreen), IKKβ, CTD-deficient Regnase-1
T1 construct: made in house; host or cells: Expi293 cells
T1 sequence (Q5D1E8 1-546): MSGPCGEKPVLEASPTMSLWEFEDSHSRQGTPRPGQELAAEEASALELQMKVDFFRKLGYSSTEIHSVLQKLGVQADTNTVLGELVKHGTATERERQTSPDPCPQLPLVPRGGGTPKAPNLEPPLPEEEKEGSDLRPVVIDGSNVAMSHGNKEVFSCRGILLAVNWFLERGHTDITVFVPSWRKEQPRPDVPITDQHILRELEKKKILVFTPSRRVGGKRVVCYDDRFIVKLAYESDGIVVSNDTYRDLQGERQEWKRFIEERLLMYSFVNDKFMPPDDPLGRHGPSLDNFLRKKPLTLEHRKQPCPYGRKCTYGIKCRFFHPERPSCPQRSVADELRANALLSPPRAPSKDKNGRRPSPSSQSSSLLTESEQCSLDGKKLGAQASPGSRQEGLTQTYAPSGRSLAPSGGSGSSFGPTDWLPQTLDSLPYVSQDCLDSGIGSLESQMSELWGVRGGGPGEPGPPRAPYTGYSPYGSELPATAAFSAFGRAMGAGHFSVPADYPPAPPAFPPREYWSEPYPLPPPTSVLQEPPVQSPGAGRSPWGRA
Protocol: Among the full-length human Regnase-1 sequence, the 1st to 546th amino acid sequence was prepared and made into a construct having a FLAG tag on the N-terminal side and a biotin ligase BirA recognition sequence on the C-terminal side (herein, a Regnase-1 lacking the C-terminal domain of Regnase-1 (amino acids 547 to 599 in the case of SEQ ID NO: 2) is referred to as “ΔCTD_Reg1”. “ΔCTD_Reg1” is different from “Regnase-1ΔCTD”, which is a C-terminal domain deletion variant resulting from a frameshift mutation caused by a 1 bp deletion at codon 517, as prepared in Example 13). In addition, the sequence from amino acids 301 to 599 of the full-length human Regnase-1 sequence was designated as C-terminal Regnase-1, and a construct having a FLAG tag on the N-terminal side and a recognition sequence for biotin ligase BirA on the C-terminal side was prepared (Reg1_301-599). The above-mentioned Regnase-1 was expressed in mammalian Expi293 cells, purified with FLAG M2 agarose, and isolated by gel filtration chromatography. When biotinylation was required, methods of nonpatent documents (BMC biotechnology, 2008,8,41; and Protein Science, 1999,8,921-929) were used.
Using Kinase assay buffer III (manufactured by SignalChem) supplemented with 2 mM DTT, 100 μM sodium vanadate, and 2 mM manganese chloride, kinase (IKKβ (manufactured by SignalChem) or TBK1 (manufactured by SignalChem)) and Regnase-1 were reacted in the presence of 10 μM ATP at room temperature for 2 hours to perform a phosphorylation reaction.
Phosphorylated Regnase-1 was detected by the AlphaScreen system. After each of the above-mentioned phosphorylated Regnase-1 antibodies was added and reacted at room temperature for one hour, anti-FLAG AlphaLISA Acceptor Beads (manufactured by PerkinElmer) and Protein A AlphaScreen Donor Beads (manufactured by PerkinElmer) were added, and EnVision (manufactured by PerkinElmer) was used to measure the excited luminescence. As a result, phosphorylated Regnase-1 produced by the phosphorylation reaction by kinase was specifically detected, and signals were confirmed to be enhanced in a manner dependent on Regnase-1 and kinase concentrations (FIG. 24).
After mixing 2 nM of the above-mentioned Regnase-1 and the compound, phosphorylated Regnase-1 produced by the phosphorylation reaction was detected by the AlphaScreen system. As the results, the inhibition rate was calculated from the signals obtained when adding the compound at each concentration, by defining the signal obtained with Regnase-1 alone to be 100% inhibition rate, and the signal obtained when the same amount of solvent (DMSO) is added in place of the compound as 0% inhibition rate. The 50% inhibition concentration (μM) was calculated from the obtained dose response curve (Table 11).

[2] = target: T2, FL_Reg1 (full-length human Regnase-1) phosphorylation by IKKβ (Homo sapiens, UniProt Q5D1E8); assay: Regnase-1 phosphorylation inhibition by compounds (AlphaScreen), IKKβ, full-length Regnase-1
T2 construct: made in house; host or cells: Expi293 cells
T2 sequence (Q5D1E8 1-599): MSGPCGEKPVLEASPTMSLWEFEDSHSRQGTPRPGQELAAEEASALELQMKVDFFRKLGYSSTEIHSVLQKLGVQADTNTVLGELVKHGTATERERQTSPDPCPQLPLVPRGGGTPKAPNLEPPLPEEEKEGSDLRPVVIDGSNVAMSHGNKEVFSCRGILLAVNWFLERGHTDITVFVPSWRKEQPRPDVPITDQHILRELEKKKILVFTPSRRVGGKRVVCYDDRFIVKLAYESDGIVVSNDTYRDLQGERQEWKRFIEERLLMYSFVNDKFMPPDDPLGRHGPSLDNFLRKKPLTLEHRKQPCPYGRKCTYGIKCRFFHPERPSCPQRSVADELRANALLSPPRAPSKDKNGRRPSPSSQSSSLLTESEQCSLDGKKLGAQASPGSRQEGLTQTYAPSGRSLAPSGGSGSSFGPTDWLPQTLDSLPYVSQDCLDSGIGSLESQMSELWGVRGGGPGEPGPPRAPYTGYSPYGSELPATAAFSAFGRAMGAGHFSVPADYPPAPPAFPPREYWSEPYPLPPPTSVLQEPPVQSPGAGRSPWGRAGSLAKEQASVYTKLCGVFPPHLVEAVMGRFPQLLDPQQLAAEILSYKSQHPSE
Procedure, shortened: (§1)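 FLAG/BirA-tagged human Regnase-1 constructs (full-length, 1–546 or 301–599), expressed in Expi293 cells, were used at 2 nM with compound and phosphorylated by IKKβ or TBK1 with 10 μM ATP, DTT, vanadate and MnCl2 for 2 h at room temperature. Phospho-Regnase-1 was read by AlphaScreen; IC50 came from % inhibition curves normalised to DMSO and Regnase-1-alone signals.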

[3] = target: T3, FL_Reg1 (full-length human Regnase-1) phosphorylation by TBK1 (Homo sapiens, UniProt Q5D1E8); assay: Regnase-1 phosphorylation inhibition by compounds (AlphaScreen), TBK1, full-length Regnase-1
T3 construct: made in house; host or cells: Expi293 cells
T3 sequence (Q5D1E8 1-599): T2 sequence (Q5D1E8 1-599)
Procedure, shortened: as §1

[4] = Table 14, phosphorylation by IKKβ, read-out: Phosphorylation inhibition ΔCTD_Reg1, 50% inhibition concentration (IKKβ)
[5] = Table 14, phosphorylation by IKKβ, read-out: Phosphorylation inhibition FL_Reg1, 50% inhibition concentration (IKKβ)
[6] = Table 13, phosphorylation by TBK1, read-out: Phosphorylation inhibition FL_Reg1, 50% inhibition concentration (TBK1)
[7] = Table 11, 2 nM Regnase-1, AlphaScreen, read-out: 50% inhibition concentration, Regnase-1 phosphorylation, ΔCTD_Reg1, IKKβ
[8] = Table 11, 2 nM Regnase-1, AlphaScreen, read-out: 50% inhibition concentration, Regnase-1 phosphorylation, FL_Reg1, IKKβ
[9] = Table 11, 2 nM Regnase-1, AlphaScreen, read-out: 50% inhibition concentration, Regnase-1 phosphorylation, FL_Reg1, TBK1

SMILES | IC50 [1, 4] [µM] | IC50 [2, 5] [µM] | IC50 [3, 6] [µM] | IC50 [1, 7] [µM] | IC50 [2, 8] [µM] | IC50 [3, 9] [µM]
CC[C@H](C)[C@@H]1NC(=O)[C@H](CCCNC(=N)N)NC(=O)[C@H](Cc2ccc(O)cc2)NC(=O)[C@H](Cc2c[nH]c3ccccc23)NC(=O)[C@H](C)NC(=O)[C@H](CO)NC(=O)[C@H](C)NC(=O)[C@H](Cc2c[nH]cn2)NC(=O)[C@H](CCCCN)NC(=O)[C@@H](C)N(C)C(=O)C[C@@H](C(=O)N2CCCC2)NC(=O)[C@H](Cc2c[nH]c3ccccc23)NC1=O [PP3] (HELM PEPTIDE1{[C[C@H](C(=O)[*:2])N(C)[*:1]].K.H.A.S.A.W.Y.R.I.W.D.[C1CCN([*:1])C1]}$PEPTIDE1,PEPTIDE1,1:R1-12:R3$$$V2.0) | – | – | – | 8.3 | 4.6 | 3.9
CC[C@H](C)[C@@H]1NC(=O)[C@H](CC(=O)O)NC(=O)[C@H](C)N(C)C(=O)C[C@@H](C(=O)N2CCCC2)NC(=O)[C@H](Cc2c[nH]c3ccccc23)NC(=O)[C@H](CC(=O)O)NC(=O)[C@H](Cc2c[nH]c3ccccc23)NC(=O)[C@H](Cc2ccc(O)cc2)NC(=O)[C@H](CC(=O)O)NC(=O)[C@H](Cc2ccccc2)NC(=O)[C@H](Cc2c[nH]c3ccccc23)NC1=O [PP17] (HELM PEPTIDE1{[meA].D.I.W.F.D.Y.W.D.W.D.[C1CCN([*:1])C1]}$PEPTIDE1,PEPTIDE1,1:R1-11:R3$$$V2.0) | 0.3 | 0.5 | < 0.06 | – | – | –
CC[C@H](C)[C@@H]1NC(=O)[C@H](Cc2ccc(O)cc2)NC(=O)[C@H](C)N(C)C(=O)C[C@@H](C(=O)N2CCCC2)NC(=O)[C@H](CC(C)C)NC(=O)[C@H](CC(=O)O)NC(=O)CNC(=O)[C@H](Cc2ccccc2)NC(=O)[C@H](Cc2ccccc2)NC(=O)[C@H](CC(=O)O)NC(=O)[C@H](Cc2c[nH]c3ccccc23)NC1=O [PP4] (HELM PEPTIDE1{[meA].Y.I.W.D.F.F.G.D.L.D.[C1CCN([*:1])C1]}$PEPTIDE1,PEPTIDE1,1:R1-11:R3$$$V2.0) | – | – | – | 8.3 | 19.5 | 61.9
CC[C@H](C)[C@@H]1NC(=O)[C@H](CCCCN)NC(=O)[C@H](Cc2ccc(O)cc2)NC(=O)[C@H](Cc2c[nH]c3ccccc23)NC(=O)[C@H](CO)NC(=O)[C@H](CO)NC(=O)[C@H]([C@@H](C)O)NC(=O)[C@@H]2CCCN2C(=O)[C@@H](C)N(C)C(=O)C[C@@H](C(=O)N2CCCC2)NC(=O)[C@H](Cc2c[nH]c3ccccc23)NC1=O [PP23] (HELM PEPTIDE1{[C[C@H](C(=O)[*:2])N(C)[*:1]].P.T.S.S.W.Y.K.I.W.D.[C1CCN([*:1])C1]}$PEPTIDE1,PEPTIDE1,1:R1-11:R3$$$V2.0) | > 62.1 | 25.6 | 18.8 | – | – | –

More lines, now with the values ahead:

IC50 [1, 4] [µM] | IC50 [2, 5] [µM] | IC50 [3, 6] [µM] | IC50 [1, 7] [µM] | IC50 [2, 8] [µM] | IC50 [3, 9] [µM] | SMILES
> 62.1 | 22.3 | 29.1 | – | – | – | CC[C@H](C)[C@@H]1NC(=O)[C@H](Cc2c[nH]c3ccccc23)NC(=O)[C@H](CCCNC(=N)N)NC(=O)[C@H](Cc2ccccc2)NC(=O)[C@H](CCC(N)=O)NC(=O)[C@H](C)NC(=O)[C@H](Cc2ccccc2)NC(=O)[C@H](CCCCN)NC(=O)[C@H](C)N(C)C(=O)C[C@@H](C(=O)N2CCCC2)NC(=O)[C@@H]2CCCN2C(=O)[C@H](Cc2ccc(O)cc2)NC1=O [PP11] (HELM PEPTIDE1{[meA].K.F.A.Q.F.R.W.I.Y.P.D.[C1CCN([*:1])C1]}$PEPTIDE1,PEPTIDE1,1:R1-12:R3$$$V2.0)
27 | 6.8 | 12.7 | – | – | – | CC[C@H](C)[C@@H]1NC(=O)[C@H](Cc2c[nH]c3ccccc23)NC(=O)[C@H](CCC(N)=O)NC(=O)[C@H](Cc2ccc(O)cc2)NC(=O)[C@H](C(C)C)NC(=O)[C@H](C)NC(=O)[C@H](Cc2ccc(O)cc2)NC(=O)[C@H](CCCNC(=N)N)NC(=O)[C@H](C)N(C)C(=O)C[C@@H](C(=O)N2CCCC2)NC(=O)[C@@H]2CCCN2C(=O)[C@H](Cc2ccc(O)cc2)NC1=O [PP12] (HELM PEPTIDE1{[meA].R.Y.A.V.Y.Q.W.I.Y.P.D.[C1CCN([*:1])C1]}$PEPTIDE1,PEPTIDE1,1:R1-12:R3$$$V2.0)
0.2 | 0.4 | 0.6 | – | – | – | CC[C@H](C)[C@@H]1NC(=O)[C@H](CC(=O)O)NC(=O)[C@H](C)N(C)C(=O)C[C@@H](C(=O)N2CCCC2)NC(=O)[C@H](Cc2ccc(O)cc2)NC(=O)[C@H](CC(=O)O)NC(=O)[C@H](Cc2c[nH]c3ccccc23)NC(=O)[C@H](Cc2ccc(O)cc2)NC(=O)[C@H](CC(=O)O)NC(=O)[C@H](Cc2ccccc2)NC(=O)[C@H](Cc2c[nH]c3ccccc23)NC1=O [PP18] (HELM PEPTIDE1{[meA].D.I.W.F.D.Y.W.D.Y.D.[C1CCN([*:1])C1]}$PEPTIDE1,PEPTIDE1,1:R1-11:R3$$$V2.0)
– | – | – | 14 | 16.6 | 21.7 | CC[C@H](C)[C@@H]1NC(=O)[C@H](CC(N)=O)NC(=O)[C@H](Cc2ccc(O)cc2)NC(=O)[C@H](Cc2c[nH]c3ccccc23)NC(=O)[C@H](CO)NC(=O)[C@H](CC(N)=O)NC(=O)[C@H](C)NC(=O)[C@H](Cc2ccc(O)cc2)NC(=O)CNC(=O)[C@H](C)N(C)C(=O)C[C@@H](C(=O)N2CCCC2)NC(=O)[C@H](Cc2c[nH]c3ccccc23)NC1=O [PP2] (HELM PEPTIDE1{[meA].G.Y.A.N.S.W.Y.N.I.W.D.[C1CCN([*:1])C1]}$PEPTIDE1,PEPTIDE1,1:R1-12:R3$$$V2.0)
> 62.1 | – | – | > 62.1 | 28.1 | 54.5 | CC(C)[C@@H]1NC(=O)[C@H](CCCCN)NC(=O)[C@H](Cc2ccc(O)cc2)NC(=O)[C@H](Cc2c[nH]c3ccccc23)NC(=O)[C@H](CO)NC(=O)[C@H]([C@@H](C)O)NC(=O)[C@H](C)N(C)C(=O)C[C@@H](C(=O)N2CCCC2)NC(=O)[C@H](CCC(N)=O)NC(=O)CNC(=O)[C@H](Cc2c[nH]c3ccccc23)NC(=O)[C@H](CC(N)=O)NC1=O [PP1] (HELM PEPTIDE1{[meA].T.S.W.Y.K.V.N.W.G.Q.D.[C1CCN([*:1])C1]}$PEPTIDE1,PEPTIDE1,1:R1-12:R3$$$V2.0)
